Patent publication CN104630230A, “一组特异识别大田软海绵酸的核酸适配体” (priority 2015, dated 2015)
Like-named read-outs stand apart in the source and are kept apart here.

Tests used:
Assay in all cases: Affinity analysis (GO separation, FAM fluorescence, saturation binding)
[1] = biological target: 5'-FAM-labelled single-stranded DNA aptamer OA27-1 (truncated OA-27, random region 40 nt) (核酸适配体 OA27-1); conditions: OA27-1, saturation binding curve (Fig. 4B)
[2] = biological target: 5'-FAM-labelled ssDNA OA-17 (80 nt); conditions: 1 μM OA, 5-200 nM ssDNA, 2 h in the dark, ex 490 nm / em 520 nm
[3] = biological target: 5'-FAM-labelled single-stranded DNA aptamer OA-27 (80 nt) (核酸适配体 OA-27)
[4] = biological target: 5'-FAM-labelled ssDNA OA-22 (80 nt); conditions: 1 μM OA, 5-200 nM ssDNA, 2 h in the dark, ex 490 nm / em 520 nm
[5] = biological target: 5'-FAM-labelled ssDNA OA-08 (80 nt); conditions: 1 μM OA, 5-200 nM ssDNA, 2 h in the dark, ex 490 nm / em 520 nm

C=C1[C@@H](O)[C@@H]2O[C@]3(CC[C@H](/C=C/[C@@H](C)[C@@H]4CC(C)=C[C@@]5(O[C@H](C[C@@](C)(O)C(=O)O)CC[C@H]5O)O4)O3)CC[C@H]2O[C@@H]1[C@@H](O)C[C@H](C)[C@H]1O[C@@]2(CCCCO2)CC[C@H]1C [OA, Okadaic acid]
Kd [1]: 39 nM
Kd [2]: < 100 nM
Kd ([3]; 1 μM OA, 5-200 nM ssDNA, 2 h in the dark, GO separation, ex 490 nm / em 520 nm, read-out: Kd): < 100 nM
Kd ([3]; in words, OA-27 compared with the other ssDNA sequences of the 8 tested (Fig. 4A)): 其Kd值最小
Kd [4]: < 100 nM
Kd [5]: < 100 nM
